Test results published in publication PMC7259600, “The crystal structures of Thermus thermophilus CMP kinase complexed with a phosphoryl group acceptor and donor” (PLoS ONE, 2020).

Legend:
[1] = target: T1, ttCMPK (CMP kinase of Thermus thermophilus HB8) (Thermus thermophilus, UniProt Q5SL35); experiment: X-ray crystal structure of the ternary complex (crystal soaked with CMP, ATP and GdCl3); type: binding; settings: with CDP and Gd3+; 1.6 A, closed form; phosphoryl donor site
T1 construct: gene cmk; full-length, expressed from pET-11a (NdeI/BamHI) in E. coli BL21(DE3), no tag mentioned; SeMet-labelled protein for the CMP open form; residue numbers up to 209
T1 sequence (Q5SL35 1-208): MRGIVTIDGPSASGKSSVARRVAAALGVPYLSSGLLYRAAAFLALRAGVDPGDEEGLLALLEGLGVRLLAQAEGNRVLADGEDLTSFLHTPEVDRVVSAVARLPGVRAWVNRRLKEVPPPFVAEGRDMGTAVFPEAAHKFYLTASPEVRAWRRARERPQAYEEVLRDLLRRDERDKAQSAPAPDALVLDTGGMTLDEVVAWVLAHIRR

[2] = target: T1, ttCMPK (CMP kinase of Thermus thermophilus HB8); experiment: X-ray crystal structure of the complex (co-crystallisation); type: binding; settings: closed form 1.5 A (3AKE; AMP-PCP and MgCl2 in drop, no AMP-PCP density); open form 2.2 A (3W8N; SeMet protein, MgCl2); phosphoryl acceptor site

SMILES | X-ray crystal structure of the ternary complex (crystal soaked with CMP, ATP and) [1] | X-ray crystal structure of the complex (co-crystallisation) [2]
Nc1ncnc2c1ncn2[C@@H]1O[C@H](COP(=O)(O)OP(=O)(O)O)[C@@H](O)[C@H]1O [ADP] | ADP is recognized by several residues from both the CORE and LID domains | –
Nc1ccn([C@@H]2O[C@H](COP(=O)(O)O)[C@@H](O)[C@H]2O)c(=O)n1 [CMP] | – | 3W8N (CMP "open" complex), 3AKE (CMP "closed" complex)
